From patent publication US20030236218A1, “Aryl phosphate derivatives of d4T with selective activity against adenovirus and HIV” (priority 2002, published 2003)
Read-outs that look alike come from different tables or passages of the source.

Legend:
HIV-1 strain HTLV-IIIB = assay: In vitro anti-HIV-1 activity, p24 antigen assay in PBMNC; format: cell-based; conditions: Human immunodeficiency virus 1, HIV-1, HTLV-IIIB, day 7
Excerpt: (§1) Virus stocks. The HIV-1 strain used in this study was HTLV-IIIB (Uckun et al., 1998 Antimicro. Agents and Chemother., 42:383-388). The non-HIV viruses included in the present study were the gancyclovir-sensitive cytomegalovirus (CMV) strain AD169 (ATCC VR-538); acyclovir-sensitive herpes simplex virus (HSV) Type I strain HF (ATCC VR-260); acyclovir-sensitive HSV Type II strain G (ATCC VR-734); adenovirus strain Type 5, strain adenoid 75 (ATCC VR-5); enterovirus strain, ECHO 30, strain Bastianni (ATCC VR-322); and respiratory syncytial virus (RSV), strain Long (ATCC VR-26).
In vitro assays of anti-HIV-1 activity. Normal human peripheral blood mononuclear cells (PBMNC) from HIV-negative donors were cultured 72 hours in RPMI 1640 supplemented with 20% (v/v) heat-inactivated fetal bovine serum (FBS), 3% interleukin-2, 2 mM L-glutamine, 25 mM HEPES, 2 g/L NaHCO3, 50 Tg/mL gentamicin, and 4 Tg/mL phytohemagglutinin prior to exposure to HIV-1 at a multiplicity of infection (MOI) of 0.1 during a 1 hour adsorption period at 37° C. in a humidified 5% CO2 atmosphere. Subsequently, cells were cultured in 96-well microtiter plates (100 TL, 2×10^6 cells/mL) in the presence of various concentrations of compounds 113 or 609. Aliquots of culture supernatants were removed from the wells on the seventh day after infection for p24 antigen assays, as previously described. […] Percent viral inhibition was calculated by comparing the p24 values from untreated infected cells (i.e., virus controls).
Statistical analysis. […] An IC50 value was calculated from each set of triplicate wells using nonlinear regression modeling of the exponential form of the linearized equation (Statview, SAS Institute, Inc., Cary, N.C.). Hydrolysis rates were determined by fitting single exponential decay equations to the disappearance of the compound in alkali conditions (all R^2 values greater than 0.85). […]

[1] = tested on: herpes simplex virus (HSV) Type I strain HF; assay: HSV-1 plaque formation assay in VERO cells; format: cell-based; conditions: Human alphaherpesvirus 1, HSV-1, Strain HF
Excerpt: as §1
(§2) Plaque formation assays. Plaque assays were used to examine the activity of the compounds against non-HIV viruses. The skin fibroblast cell line SF (ATCC CRL-2097) was used as a target for AD169, Adenovirus Type 5. […] cell line (ATCC CCL-81) was used as a target for HSV HF and G. The HEP-2 cell line (ATCC CCL-23) was used as a target for the RSV strain Long. These cell lines were cultured at 1×10^5 cells/well in 24-well (all but ECHO 30-infected SF) or 6-well (ECHO 30-infected SF) tissue culture plates with 0.9% methylcellulose or 0.4% SeaPlaque agarose semisolid support. […] Percent inhibition of plaque formation was calculated by comparing the plaque numbers from the test substance-treated infected cells with the plaque numbers from untreated infected cells (i.e., virus controls). The IC50 values were determined using the Statview statistics program (SAS Institute, Inc., Cary, N.C.).
(§3) Statistical analysis. […] An IC50 value was calculated from each set of triplicate wells using nonlinear regression modeling of the exponential form of the linearized equation (Statview, SAS Institute, Inc., Cary, N.C.). […]
(§4) The skin fibroblast cell line SF (ATCC CRL-2097) was used as a target for AD169, Adenovirus Type 5, and ECHO 30; the VERO cell line (ATCC CCL-81) was used as a target for HF and G; and the HEP-2 cell line (ATCC CCL-23) was used as target for the RSV strain Long. Results are expressed as the average IC50 values in μM. […]

[2] = tested on: respiratory syncytial virus (RSV), strain Long; assay: RSV plaque formation assay in HEP-2 cells; format: cell-based; conditions: human respiratory syncytial virus
Excerpt: as §1, §2, §3, §4

[3] = tested on: adenovirus strain Type 5, strain adenoid 75; assay: Adenovirus plaque formation assay in skin fibroblast cell line SF; format: cell-based, human adenovirus
Excerpt: as §1
Plaque formation assays. Plaque assays were used to examine the activity of the compounds against non-HIV viruses. The skin fibroblast cell line SF (ATCC CRL-2097) was used as a target for AD169, Adenovirus Type 5. […] cell line (ATCC CCL-81) was used as a target for HSV HF and G. The HEP-2 cell line (ATCC CCL-23) was used as a target for the RSV strain Long. These cell lines were cultured at 1×10^5 cells/well in 24-well (all but ECHO 30-infected SF) or 6-well (ECHO 30-infected SF) tissue culture plates with 0.9% methylcellulose or 0.4% SeaPlaque agarose semisolid support. Minimum Essential Medium (MEM) with Earle's salts (Gibco), L-glutamine, non-essential amino acids, 2% heat-inactivated fetal bovine serum, 1% penicillin/streptomycin, and 0.05% gentamicin served as the culture medium. The incubation times were 3 days for HF, G, ECHO 30, and Long; and 7 days for AD169 and Adenovirus Type 5. Plaque counting was performed with a 20X dissecting microscope for AD169, Type 5, ECHO 30, and RSV Long, and with a light box for HF and G. The fixative agent was crystal violet for all viruses, except for the CMV strain AD169 for which methylene blue was used. Percent inhibition of plaque formation was calculated by comparing the plaque numbers from the test substance-treated infected cells with the plaque numbers from untreated infected cells (i.e., virus controls). The IC50 values were determined using the Statview statistics program (SAS Institute, Inc., Cary, N.C.).
Statistical analysis. Each drug was tested at 6-7 different concentrations ranging from 0.0001 μM to 100 μM. Each assay was set up in triplicate wells and repeated 1-3 times. An IC50 value was calculated from each set of triplicate wells using nonlinear regression modeling of the exponential form of the linearized equation (Statview, SAS Institute, Inc., Cary, N.C.). […] The IC50 values obtained were correlated to the log transformed hydrolysis rate constants by fitting a linear model (JMP Software, SAS Institute Inc., Cary, N.C.). P-values less than 0.05 were deemed significant.
The skin fibroblast cell line SF (ATCC CRL-2097) was used as a target for AD169, Adenovirus Type 5, and ECHO 30; the VERO cell line (ATCC CCL-81) was used as a target for HF and G; and the HEP-2 cell line (ATCC CCL-23) was used as target for the RSV strain Long. Results are expressed as the average IC50 values in μM. Stavudine (STV) was included as a control.

[4] = Pharmacokinetic studies in mice, oral administration; format: in vivo, Balb/c mice
Procedure: Female Balb/c mice (6-8 weeks old) from Taconic (Germantown, N.Y.) were housed in a controlled environment (12-hours of light/12-hours of dark, 22±1° C., 60±10% relative humidity), which is fully accredited by the USDA. All rodents were housed in microisolator cages (Lab Products, Inc., NJ) containing autoclaved bedding. The mice were allowed free access to autoclaved pellet food and tap water throughout the study. All animal care procedures conformed to the Guide for the Care and Use of Laboratory Animals (National Research Council, National Academy Press, Washington D.C. 1996).
Sampling time points were 0, 2, 5, 10, 15, 30, 45, 60, 120, 240 and 360 minutes after the gavage.
All collected blood samples were heparinized and centrifuged at 7000×g for 5 minutes to separate the plasma fraction from the whole blood. The plasma samples were then processed immediately using the extraction procedure described above.
Pharmacokinetic modeling and parameter calculations were carried out using the WinNonlin Professional Version 3.0 (Pharsight, Inc., Mountain, Calif.) pharmacokinetics software (Chen et al., Pharm. Res., 16, 1003 (1999); Chen et al., Pharm. Res., 16, 117 (1999); Chen et al., J. Clin. Pharmacol., 39, 1248 (1999); Uckun et al., Clin. Cancer Res., 5, 2954 (1999); and Uckun et al., J. Pharmacol. Exp. Ther., 291, 1301 (1999)). An appropriate model was chosen on the basis of the lowest sum of weighted squared residuals, the lowest Schwartz Criterion (SC), the lowest Akaike's Information Criterion (AIC) value, the lowest standard errors of the fitted parameters, and the dispersion of the residuals. The elimination half-life was estimated by linear regression analysis of the terminal phase of the plasma concentration-time profile. The area under the concentration-time curve (AUC) was calculated according to the linear trapezoidal rule between the first sampling time (0 hours) and the last sampling time plus C/k, where C is the concentration of the last sampling and k is the elimination rate constant. The systemic clearance (CL) was determined by dividing the dose by the AUC. The metabolic clearance of the parent drug, the formation clearance of the metabolite, the clearance elimination of the metabolite, and the distribution clearance of the metabolite were estimated by simultaneous fitting of the concentration of parent drug and metabolites as a function of time curve to pharmacokinetic models (see FIGS. 7A & 8A) specified as a system of differential equations (Gabrielsson & Weiner, Phamacokinetic/Phamacodynamic Data Analysis: Concepts and Applications, Swedish Pharmaceutical Press (1997)).

[5] = tested on: cytomegalovirus (CMV) strain AD169; assay: CMV plaque formation assay in SF cells; format: cell-based; conditions: Human betaherpesvirus 5
Excerpt: as §1, §2, §3, §4

HSV Type II strain G = assay: HSV-2 plaque formation assay in VERO cells; format: cell-based, herpes simplex virus Type II; conditions: Human alphaherpesvirus 2, HSV-2, Strain G
Excerpt: as §1, §2, §3, §4

[6] = Octanol/water partition coefficient, shake flask method; format: physicochemical; conditions: 4 hours at room temperature, read-out: Oct/Water (log P)
Procedure: HPLC purification was achieved using a reverse-phase Lichrospher column (250×4 mm, Hewlett-Packard, RP-18, Cat. #79925) and an isocratic flow (1 ml/minute) consisting of water (70%) and acetonitrile (30%). Melting points were determined using a Melt John's apparatus and are uncorrected. Column chromatography was performed using silica gel obtained from Baker Company. The octanol/water partition coefficient was determined by the shake flask method. The phosphoramidate analogs were added to 2 ml of water and 2 ml of octanol in a glass vial. The mixture was shaken for 4 hours at room temperature. The two phases were carefully separated and filtered through a Millipore filter and analyzed by HPLC. The partition coefficient was calculated using the ratio of the area under the curve for octanol and water, respectively.

Compound	IC50 (HIV-1 strain HTLV-IIIB)	IC50 [1]	IC50 ([2]; RSV, Strain Long, HEP-2 cells, plaque assay, read-out: IC50)	IC50 ([3]; Skin fibroblast, […], Adenovirus Type 5, 7 days, ± s.e., read-out: IC50, ADV-induced plaque formation)	half-life ([4]; mouse, in vivo, po, mice, orally administered d4T)	Tmax ([4]; mouse, in vivo, po, mice, orally administered d4T, read-out: tmax (converted))	bioavailability ([4]; orally administered d4T)	IC50 [5]	IC50 (HSV Type II strain G)	logP at 4 h ([6]; octanol/water)	IC50 ([2]; HEp-2)	IC50 ([3]; Adenovirus Type 5, 7 days, ± s.e., read-out: IC50, ADV-induced plaque formation)	IC50 ([3]; Skin fibroblast, […], read-out: IC50, ADV-induced plaque formation, Adenovirus Type 5, 7 days, ± s.e.)	plasma concentration of the parent ([4]; after oral 100 mg/kg compound 113, below the detection limit)	logP at 4 h [6]
Cc1cn([C@H]2C=C[C@@H](CO)O2)c(=O)[nH]c1=O [d4T, 2′, 3′-Didehydro-3′-deoxy thymidine, reference compound]	0.023 ± 0.008 µM	> 100 µM	> 100 µM	12.3 ± 0.3 µM	18 min	5 min	98%	> 100 µM	> 100 µM	-0.59					
COC(=O)C(C)NP(=O)(OC[C@@H]1C=C[C@H](n2cc(C)c(=O)[nH]c2=O)O1)Oc1ccc(Br)cc1 (stereo partly shown) [Compound 113, 5′-[4-Bromophenyl methoxylaninylphosphate]-2′, 3′-didehydro-3′-deoxy thymidine]	0.001 µM	> 100 µM						> 100 µM	> 100 µM		> 100 µM	0.0223 ± 0.009 µM	0.022 ± 0.009 µM	< 500 nM	1.21
